Measurements: US12016863B2, “Inhibitors of RSV replication and applications thereof” (priority 2018, dated 2024)

Key:
[1] = Cytotoxicity in BEAS2B cells; format: cell-based; conditions: human, read-out: CC50 BEAS2B cells RSV
Description: (§1) For initial potency assessment, recombinant RSV reporter viruses can be employed to determine dose-response curves. These tests can be run routinely in an automated format, simultaneously assessing 8-fold serial compound dilutions in 3 independent replicates. Active concentrations can be calculated by four-parameter variable slope regression modeling. Individual prodrug candidates failing this assay can be tested for membrane permeability using a Caco-2 cell assay. Resistance-validated Caco-2 monolayers (TEER value >0.5×103Ω) will receive compound from the apical side, followed by LC-MS/MS-based quantification of substance intracellularly and in both chambers after 2-hour incubation. Atenolol, propranolol, and talinolol can be included as references and permeability coefficients (Papp) calculated. Candidates with poor Papp values can be reformulated synthetically. In parallel, all candidates can be subjected to rapid cytotoxicity screening, relying on PrestoBlue to monitor the redox potential of living cells after 48-hour exposure to a concentration range of compound. A validated automated cytotoxicity test pipeline has been established and can calculate CC50 values through variable slope regression modeling.

[2] = biological target: RSV N protein (N-P interaction) (Human respiratory syncytial virus A (strain A2), UniProt P03418); experiment: FP assay: competition with 5-FAM-Ppep for purified RSV N; format: binding; conditions: for Ki: FP assay, purified RSV N vs 5-FAM-Ppep
RSV N protein (N-P interaction), sequence (P03418 whole entry): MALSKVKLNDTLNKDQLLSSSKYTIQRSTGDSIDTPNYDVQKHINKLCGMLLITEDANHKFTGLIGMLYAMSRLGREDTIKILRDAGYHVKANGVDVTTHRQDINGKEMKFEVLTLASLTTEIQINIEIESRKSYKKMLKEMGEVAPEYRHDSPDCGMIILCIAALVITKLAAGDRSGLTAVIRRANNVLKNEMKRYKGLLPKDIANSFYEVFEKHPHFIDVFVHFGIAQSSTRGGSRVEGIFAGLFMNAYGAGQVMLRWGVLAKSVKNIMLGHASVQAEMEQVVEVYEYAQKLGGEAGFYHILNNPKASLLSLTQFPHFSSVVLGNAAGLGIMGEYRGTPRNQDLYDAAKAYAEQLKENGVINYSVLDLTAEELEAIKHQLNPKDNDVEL

[3] = tested on: RSV; experiment: Cell-based anti-RSV potency in BEAS2B cells; conditions: human respiratory syncytial virus, BEAS-2B
Description: as §1

[4] = Cytotoxicity in HEp2 cells; format: cell-based; conditions: human, read-out: CC50 HEp2 cells RSV
Description: as §1

[5] = tested on: RSV; experiment: Cell-based anti-RSV potency in HEp2 cells; conditions: human respiratory syncytial virus, HEp-2
Description: as §1

[6] = biological target: RSV N-P interaction (Human respiratory syncytial virus A (strain A2), UniProt P03418); experiment: Biolayer interferometry (BLI) competition assay, purified N to P protein biosensors; format: binding; conditions: PBS+BSA 0.01% +Tween20 0.002%
RSV N-P interaction, sequence (P03418 whole entry): as above
Description: Dissociation rates of purified N to P protein biosensors determined in presence of GRP-171194 under stringent conditions (PBS+BSA 0.01% +Tween20 0.002%).

**Q.** Which CC50 at 48 h [1] does the source give for `Cc1c(Cl)c(=O)oc2cc(O)ccc12` [AX801] here?
**A.** The CC50 at 48 h was 116 µM.

**Q.** What about the Ki [2] of the same compound?
**A.** Its Ki is greater than 300 µM.

**Q.** What about the IC50 [3] of the same compound?
**A.** Its IC50 is 65 µM.

**Q.** With `CC(C)COC(=O)C1=CC(c2ccccc2Cl)n2nnnc2N1` (centres unmarked) [EJ3043] as the compound, how does the CC50 at 48 h [1] read?
**A.** Its CC50 at 48 h is greater than 300 µM.

**Q.** And the CC50 at 48 h [4]?
**A.** Its CC50 at 48 h is greater than 300 µM.

**Q.** And the Ki [2]?
**A.** The Ki was greater than 300 µM.

**Q.** What about the IC50 [5] of the same compound?
**A.** The IC50 was greater than 300 µM.

**Q.** What about the IC50 [3] of the same compound?
**A.** Its IC50 is greater than 300 µM.

**Q.** For `COC(=O)C1=CC(c2ccccc2Cl)n2nnnc2N1` (centres unmarked) [EJ3051], which CC50 at 48 h [1] is on record?
**A.** The CC50 at 48 h was 102 µM.

**Q.** What about the Ki [2] of the same compound?
**A.** Its Ki is greater than 300 µM.

**Q.** What about the IC50 [3] of the same compound?
**A.** The IC50 was 101 µM.

**Q.** Which results are given for `CN(C)C(=O)C1=CC(c2ccccc2Cl)n2nnnc2N1` (centres unmarked) [EJ3054]?
**A.** CC50 at 48 h [1]: 131 µM; Ki [2]: > 300 µM; IC50 [3]: 100 µM

**Q.** What does the source list for `CNC(=O)C1=CC(c2ccccc2Cl)n2nnnc2N1` (centres unmarked) [EJ3057]?
**A.** CC50 at 48 h [1]: > 100 µM; Ki [2]: > 300 µM; IC50 [3]: 112 µM

**Q.** Which Ki [2] does the source give for `COc1ccc2c(C)c(Cl)c(=O)oc2c1` [EJ3061] here?
**A.** Its Ki is greater than 300 µM.

**Q.** Which results are given for `CCOC(=O)C1=CC(c2ccccc2Cl)n2nnnc2N1` (centres unmarked) [EJ3062]?
**A.** CC50 at 48 h [1]: > 300 µM; CC50 at 48 h [4]: > 300 µM; Ki [2]: > 300 µM; IC50 [5]: > 300 µM; IC50 [3]: > 300 µM

**Q.** What does the source list for `Cc1c(Cl)c(=O)oc2cc(OC(C)C)ccc12` [EJ3063]?
**A.** CC50 at 48 h [1]: > 300 µM; CC50 at 48 h [4]: 1.2 µM; Ki [2]: > 300 µM; IC50 [5]: 1.9 µM; IC50 [3]: 14.6 µM

**Q.** For `COC(=O)Nc1ccc2c(C)c(Cl)c(=O)oc2c1` [EJ3066], which CC50 at 48 h [1] is on record?
**A.** Its CC50 at 48 h is greater than 100 µM.

**Q.** What about the CC50 at 48 h [4] of the same compound?
**A.** Its CC50 at 48 h is greater than 100 µM.

**Q.** And the Ki [2]?
**A.** The Ki was greater than 300 µM.

**Q.** What about the IC50 [5] of the same compound?
**A.** The IC50 was greater than 100 µM.

**Q.** And the IC50 [3]?
**A.** Its IC50 is 130 µM.

**Q.** What does the source list for `CC(=O)Oc1ccc2c(C)cc(=O)oc2c1` [EJ21257]?
**A.** CC50 at 48 h [1]: 113 µM; CC50 at 48 h [4]: > 100 µM; Ki [2]: 2.9 µM; IC50 [5]: > 300 µM; IC50 [3]: > 300 µM

**Q.** What does the source list for `O=C(O)C1=CC(c2ccccc2Cl)n2nnnc2N1` (centres unmarked) [GRP-171194, 7-(2-chlorophenyl)-4,7-dihydrotetrazolo[1,5-a]pyrimidine-5-carboxylic acid]?
**A.** CC50 at 48 h [1]: > 300 µM; CC50 at 48 h [4]: > 300 µM; Ki [2]: 2.4 µM; competition with 5-FAM-Ppep for N in FP assay ([2]; compound 0.31-40 μM, 5-FAM-Ppep 1 μM): dose-dependent competition; IC50 [5]: > 300 µM; IC50 [3]: > 300 µM; inhibition of purified N binding to P protein biosensors (BLI) [6]: dose-dependent inhibition

**Q.** Which Ki [2] does the source give for `CC(=O)Oc1ccc2c(C)c(Cl)c(=O)oc2c1` [GRP-268365] here?
**A.** The Ki was 2.2 µM.

**Q.** Which results are given for `O=C(O)C1=CC(c2ccccc2)n2nnnc2N1` (centres unmarked) [RJW-3-024]?
**A.** CC50 at 48 h [1]: > 300 µM; Ki [2]: 10 µM; IC50 [3]: > 300 µM

**Q.** Which CC50 at 48 h [1] does the source give for `O=C(OCC(F)(F)F)C1=CC(c2ccccc2Cl)n2nnnc2N1` (centres unmarked) [ZD-3-064] here?
**A.** Its CC50 at 48 h is greater than 300 µM.

**Q.** And the Ki [2]?
**A.** Its Ki is greater than 300 µM.

**Q.** And the IC50 [3]?
**A.** Its IC50 is greater than 300 µM.

**Q.** For `Cc1c(Cl)c(=O)oc2cc(OC(=O)C(C)C)ccc12` [ZD-3-067], which CC50 at 48 h [1] is on record?
**A.** Its CC50 at 48 h is 251 µM.

**Q.** What about the CC50 at 48 h [4] of the same compound?
**A.** Its CC50 at 48 h is 7 µM.

**Q.** And the Ki [2]?
**A.** Its Ki is 1.6 µM.

**Q.** What about the IC50 [5] of the same compound?
**A.** Its IC50 is 6.5 µM.

**Q.** What about the IC50 [3] of the same compound?
**A.** Its IC50 is 136 µM.

**Q.** For `CC(C)OC(=O)C1=CC(c2ccccc2Cl)n2nnnc2N1` (centres unmarked) [ZD-3-069], which CC50 at 48 h [1] is on record?
**A.** Its CC50 at 48 h is greater than 300 µM.

**Q.** And the CC50 at 48 h [4]?
**A.** The CC50 at 48 h was greater than 300 µM.

**Q.** What about the Ki [2] of the same compound?
**A.** The Ki was greater than 300 µM.

**Q.** What about the IC50 [5] of the same compound?
**A.** Its IC50 is greater than 300 µM.

**Q.** And the IC50 [3]?
**A.** The IC50 was greater than 300 µM.
